Laboratory results reported in patent US20160221932A1, “Methods and Uses of Melatonin Ligands” (priority 2013, published 2016).
“Also recorded” adds a separate entry of the source.

Tests used:
[1] = tested on: Wistar rats; assay: formalin test; type: in vivo, rat; details: for licking time vs vehicle, first phase / licking time vs vehicle, total time / licking time vs vehicle, second phase: 30 min prior to test; for licking time compared to untreated rats: summary statement, dose not stated
Description: Animals: Wistar rats (150-250 g, Charles-River Saint-Constant, Quebec, Canada) were used for the formalin test, hot plate test and L5-L6 spinal nerves ligature model. The animals were housed at constant room temperature and humidity under a 12 h light/dark cycle (lights on at 7 AM). Food and water were available ad libitum.
Formalin Test: Antinociception was assessed using the formalin test (Dubuisson and Dennis, 1977). Rats were placed in open Plexiglas observation chambers for 60 min to allow them to acclimatize to their surroundings; then they were removed for formalin administration. Rats were gently restrained while the dorsal surface of the right hindpaw was injected with […] of 1% formalin (37% formaldehyde solution further diluted in saline solution) with a 30-gauge needle. The animals were returned to the chambers and nociceptive behavior was observed immediately after formalin injection. Mirrors were placed in each chamber to enable unhindered observation. Licking/biting behavior directed to the formalin injected paw was scored in 5 min intervals considering number and duration of the licking. Cumulative behavior for the total duration of the test as well as the first (0-10 min) and second phase (20-50 min) was then analyzed (Sufka et al., 1998).The initial acute phase (0-10 min) was followed by a relatively short quiescent period, which was then followed by a prolonged tonic response (15-60 min). The first phase is considered to be the result of direct stimulation of nociceptors, whereas inflammation process contributes to phase 2 activity (Hunskaar and Hole, 1987). At the end of the experiment the rats were sacrificed in a CO2 chamber.
(§1) Statistical Analysis: Data analysis was done using SigmaPlot 12 (Systat Software, Inc.). Two-way ANOVA for repeated measures was used to analyze data from L5-L6 models using treatments (between) and testing time (within) as factors. One-way ANOVA was used to analyze AUC in the L5-L6 spinal nerves ligation model. One-way ANOVA was used for formalin and hot-plate tests. Post-hoc analyses were performed using Bonferroni t-test comparisons or Student-Newman-Keuls (SNK) test. All data are expressed as mean±Standard Error of the Mean (SEM). P<0.05 was considered significant.

[2] = tested on: SNI rats; assay: spared nerve injury (SNI) model, dynamic plantar aesthesiometer; type: in vivo, rat; details: for mechanical withdrawal threshold compared to untreated rats: summary statement, dose not stated
Description: Spared nerve injury (SNI) of the sciatic nerve and measurement of allodynia with the dynamic plantar aesthesiometer. SNI was performed according to the method of Decosterd and Woolf (2000). Rats were anaesthetized with sodium pentobarbital (50 mg/kg i.p.). The sciatic nerve was exposed at mid-thigh level […] to the trifurcation and freed of connective tissue; the three peripheral branches (sural, common peroneal, and tibial nerves) of the sciatic nerve were exposed without stretching nerve structures. Both tibial and common peroneal nerves were ligated and transected together. The sham procedure consisted of the same surgery without ligation and transection of the nerves. Fourteen days after SNI, mechanical allodynia was measured using the dynamic plantar aesthesiometer (Ugo Basile, Varese, Italy). Each rat was placed and allowed to move freely in one of the two compartments of the enclosure positioned on a metal grid surface. A mechanical stimulus was delivered to the plantar surface of the rat's hind paw through the metal grid by a steel filament (Von Frey-type), connected to a movable touch-stimulator unit exerting an increasing force of 3 g per second. The force inducing paw withdrawal was recorded to the nearest 0.1 g. Nociceptive responses for mechanical sensitivity (mechanical withdrawal threshold) were measured in grams before and after vehicle or drug administration by an experimenter blind to the treatments. A single trial at each time point was performed on the ipsilateral hind paw to SNI surgery for each rat. Nociceptive responses for mechanical sensitivity were expressed as mean±SEM (g). Groups of 6-7 rats per treatment were used, with each animal being used for one treatment only.
as §1

SMILES	licking time vs vehicle, first phase ([1]; 10 mg/kg)	licking time vs vehicle, total time ([1]; 10 mg/kg)	licking time vs vehicle, first phase ([1]; 20 mg/kg s.c.)	licking time vs vehicle, second phase ([1]; 20 mg/kg s.c.)	licking time vs vehicle, total time ([1]; 20 mg/kg s.c.)	licking time vs vehicle, first phase ([1]; 40 mg/kg)	licking time vs vehicle, second phase ([1]; 40 mg/kg)	licking time vs vehicle, total time ([1]; 40 mg/kg)	licking time compared to untreated rats [1]	reduction of the mechanical allodynia ([2]; 20 mg/kg s.c.)	reduction of the mechanical allodynia ([2]; 40 mg/kg s.c.)	mechanical withdrawal threshold compared to untreated rats [2]	licking time vs vehicle, second phase ([1]; 10 mg/kg)	effect on mechanical allodynia compared with GBP 100 mg/kg, MLT 150 mg/kg and VEH ([2]; 20 mg/kg s.c.)	extent of reversal of mechanical allodynia ([2]; 20 and 40 mg/Kg s.c.)
COc1cccc(N(CCNC(C)=O)c2ccccc2)c1 [5b, N-{2-[(3-Methoxyphenyl)-phenylamino]ethyl}acetamide]	decrease in the licking time	reduction of the licking time	decrease in the licking time; also recorded: decreased the licking time	decreased the licking time; also recorded: decrease of the licking time	reduction of the licking time; also recorded: decrease in the licking time; also recorded: decreased the licking time	decrease in the licking time; also recorded: decreased the licking time	decreased the licking time	reduction of the licking time; also recorded: decreased the licking time	significantly decreased	significant reduction of the mechanical allodynia	significant reduction of the mechanical allodynia	significant decrease in mechanical withdrawal threshold	–	–	–
CC(=O)NCCN(c1ccc(F)cc1)c1cccc(Br)c1 [5p, N-{2-[(3-Bromophenyl)-4-fluorophenylamino]ethyl}acetamide]	decrease in the licking time	–	decrease in the licking time; also recorded: decreased the licking time	decreased the licking time; also recorded: decrease of the licking time	reduction of the licking time; also recorded: decrease in the licking time; also recorded: decreased the licking time	decrease in the licking time; also recorded: decreased the licking time	decreased the licking time	reduction of the licking time; also recorded: decreased the licking time	significantly decreased	significant reduction of the mechanical allodynia	significant reduction of the mechanical allodynia	significant decrease in mechanical withdrawal threshold	decreased the licking time	greater than those produced by GBP	reversed almost completely mechanical allodynia
